The subject of test [1] is tumor tissue of breast cancer patients. As to the kind of experiment: Reduction rate of tumor after chemotherapy (tumor size before and after) in breast cancer patients. The following applies: individual breast cancer patient, after receiving the chemotherapy prescribed in the regimen. It is filed as in vivo, human. Here is the method:
Next, CDK1 expression level, CDK1 active value, CDK2 expression level, CDK2 active value of malignant tumors collected by needle biopsy from breast cancer patients before receiving chemotherapy are measured, and CDK1 specific activity and CDK2 specific activity are obtained. Meanwhile, the reduction rate of tumor is obtained by measuring a size of tumor tissue of each patient before and after the chemotherapy. In Table 1, CDK1 SA denotes CDK1 specific activity, CDK2SA denotes CDK2 specific activity, […] denotes cell cycle profile score, and reduction rate of tumor denotes reduction rate of tumors after receiving the chemotherapy prescribed in the regimen. In the column of the regimen, “wT” means paclitaxel, “FEC” means fluorouracil, cyclophosphamide, epirubicin, “CE” means cyclophosphamide, epirubicin, “Doce” means docetaxel, “ZL” means zoladex, “TM” means tamoxifen, and “UFT” means uracil, tegafur.

In test [2] the test system is malignant tumors of breast cancer patients. As to the kind of experiment: Pathological complete response (pCR) attained by chemotherapy in breast cancer patients. It is filed as in vivo, human. The settings on record: individual breast cancer patient, after chemotherapy regimen; 1 = pathological complete response. Here is the method:
For breast cancer patients listed in Table 3 shown below, CDK1 expression level, CDK1 active value, CDK2 expression level, CDK2 active value of malignant tumors collected by needle biopsy before receiving chemotherapy are measured, and CDK1 specific activity and CDK2 specific activity are obtained. Further for each of patients shown in Table 3, whether or not pathological complete response (pCR) has been attained by the chemotherapy is shown in Table 3. In the column “pCR” in Table 3, “1” denotes pathological complete response.

The values below come from US20100068743A1, “Method for predicting response of cancer patient to anticancer drug treatment” (John Wayne Cancer Institute and Sysmex Corporation, priority 2008, published 2010).

Consider `CC(=O)O[C@H]1C(=O)[C@@]2(C)[C@H]([C@H](OC(=O)c3ccccc3)[C@]3(O)C[C@H](OC(=O)[C@H](O)[C@@H](NC(=O)c4ccccc4)c4ccccc4)C(C)=C1C3(C)C)[C@]1(OC(C)=O)CO[C@@H]1C[C@@H]2O` [wT, paclitaxel], for which, in test [1], the “Reduction rate of tumor” value is 70%. Further, the pCR in test [2] was determined as 0.
